These results are taken from US20250243242A1, “LEVODOPA TYROSINE POLYMORPHS” (NeuroDerm, Ltd., priority 2022, published 2025).

Holding throughout (assay type): physicochemical
Data set [1] can be described thus: aqueous solubility at various pH.
A short description of data set [2]: dynamic vapor sorption (DVS). The note with it: for hygroscopicity (in words): DVS, 40-80% RH; for hygroscopicity, weight gained: between 40-80% RH. As for the experimental part: Dynamic vapour sorption (DVS) was performed using a Hiden Analytical Instruments IGAsorp Vapour Sorption Balance. Approximately 30 mg of sample was placed into a wire-mesh vapour sorption balance pan, loaded into the IGAsorp vapour sorption balance and held at 25° C.±0.1° C. The sample was subjected to a step profile in 10% increments from 40-90% RH, followed by desorption from 90-0% RH and a second sorption cycle form 0-40% RH. The equilibrium criterion was set to 99.0% step completion within a minimum of 60 minutes and a maximum of 5 hours for each increment. The weight change during the sorption cycle was monitored, allowing for the hygroscopic nature of the sample to be determined. The data collection interval was in seconds.

Data set [3] in a line: physical stability at 75% RH and 40° C.
The nature of data set [4]: solid form stability upon storage at ambient conditions.
[5] abbreviates: between about 40 to about 80% RH at 25° C.

Each structure is given as a SMILES string. In brackets after ≈: the same amount, converted by molar mass. Non-standard residues stand in square brackets, D forms with d. Residues, ends and D or L forms follow the SMILES beside them. Dopa = N[C@@H](Cc1ccc(O)c(O)c1)C(=O)O

`N[C@@H](Cc1ccc(O)c(O)c1)C(=O)N[C@@H](Cc1ccc(O)cc1)C(=O)O` [Form N, ((S)-2-amino-3-(3,4-dihydroxyphenyl)propanoyl)-L-tyrosine] (H-[Dopa]-Tyr-OH): the solubility (usually the concentration that dissolves in the medium under given conditions) in data set [1] (aqueous medium, pH 3.27, aqueous buffer, pH of about 3.27) was about 2.86 mg/mL (≈ 7.94 mM); in data set [1] (aqueous medium, pH 3.83, aqueous buffer, pH of about 3.83) it was about 1.64 mg/mL (≈ 4.55 mM); in data set [1] (aqueous medium, pH 3.92, aqueous buffer, pH of about 3.92), about 1.54 mg/mL (≈ 4.27 mM); in data set [1] (aqueous medium, pH 4.68, aqueous buffer, pH of about 4.68), about 1.33 mg/mL (≈ 3.69 mM); in data set [1] (aqueous medium, pH 5, aqueous buffer, pH of about 5.00) it was about 1.29 mg/mL (≈ 3.58 mM); in data set [1] (aqueous medium, pH 6.04, aqueous buffer, pH of about 6.04), about 1.37 mg/mL (≈ 3.8 mM). Besides, the solubility in data set [1] (aqueous solution, pH 1.17, simulated gastric fluid, pH of about 1.17) is about 184 mg/mL (≈ 512 mM); in data set [1] (aqueous solution, pH 2.6, aqueous buffer, pH of about 2.60), about 9.46 mg/mL (≈ 26.3 mM); in data set [1] (aqueous solution, pH 3, aqueous buffer, pH of about 3.00) it was about 4.06 mg/mL (≈ 11.3 mM); in data set [1] (aqueous solution, pH 6.78, aqueous buffer, pH of about 6.78) it was about 0.51 mg/mL (≈ 1.42 mM); in data set [1] (aqueous solution, pH 7.56, aqueous buffer, pH of about 7.56) it was about 18.9 mg/mL (≈ 52.3 mM); in data set [1] (aqueous solution, pH 8.69, aqueous buffer, pH of about 8.69) it was about 111 mg/mL (≈ 309 mM). The solubility in data set [1] (aqueous solution, pH 9.43, aqueous buffer, pH of about 9.43) was about 58.7 mg/mL (≈ 163 mM); in data set [1] (aqueous solution, pH 10.26, aqueous buffer, pH of about 10.26), about 155 mg/mL (≈ 431 mM). For the same molecule, in data set [2] (DVS analysis, compared with Form G), the “hydrate stability, water loss at low RH” value is reported as “more stable hydrate”. For the same molecule, the “hygroscopicity (in words)” value in data set [2] is given as “less hygroscopic”. Further, the “hygroscopicity, weight gained” value in data set [2] is 0.6 % w/w. Besides, the “DVS reversable total mass change” value in data set [2] (setting [5]) is “about 0.6 wt. %”. Further, in data set [3], the physical stability entry is “physically stable”.
`N[C@@H](Cc1ccc(O)c(O)c1)C(=O)N[C@@H](Cc1ccc(O)cc1)C(=O)O` [Form E, ((S)-2-amino-3-(3,4-dihydroxyphenyl)propanoyl)-L-tyrosine] (H-[Dopa]-Tyr-OH): in data set [2] (between about 0 to about 90% RH at 25° C.), the “DVS reversable total mass change” value was “about 8 wt. %”. The “form conversion upon storage” value in data set [4] is “converted to Form B”.
For `N[C@@H](Cc1ccc(O)c(O)c1)C(=O)N[C@@H](Cc1ccc(O)cc1)C(=O)O` [Form D, ((S)-2-amino-3-(3,4-dihydroxyphenyl)propanoyl)-L-tyrosine] (H-[Dopa]-Tyr-OH), the “form conversion upon storage” value in data set [4] is “converted to Form N”.
Consider `N[C@@H](Cc1ccc(O)c(O)c1)C(=O)N[C@@H](Cc1ccc(O)cc1)C(=O)O` [Form G, ((S)-2-amino-3-(3,4-dihydroxyphenyl)propanoyl)-L-tyrosine] (H-[Dopa]-Tyr-OH), for which the “hygroscopicity, weight gained” value in data set [2] turned out to be 2.6 % w/w. Moreover, the “DVS reversable total mass change” value in data set [2] (setting [5]) is “about 2.6 wt. %”.
Take `N[C@@H](Cc1ccc(O)c(O)c1)C(=O)N[C@@H](Cc1ccc(O)cc1)C(=O)O` [amorphous form, ((S)-2-amino-3-(3,4-dihydroxyphenyl)propanoyl)-L-tyrosine] (H-[Dopa]-Tyr-OH): the “hygroscopicity (in words)” value in data set [2] is “hygroscopic”. In data set [2] (XRPD after DVS cycling), the “solid form by XRPD following DVS cycling” value is given as “converted to Pattern N material”. For the same molecule, the “DVS reversable total mass change” value in data set [2] (setting [5]) is “about 4.19 wt. %”.
Turning to `N[C@@H](Cc1ccc(O)c(O)c1)C(=O)N[C@@H](Cc1ccc(O)cc1)C(=O)O` [Form C, ((S)-2-amino-3-(3,4-dihydroxyphenyl)propanoyl)-L-tyrosine] (H-[Dopa]-Tyr-OH), the “form conversion upon storage” value in data set [4] was “converted to Form G”.
